Reference: US11672766B2, “Therapeutic cationic peptides and unimolecular nanoparticles for efficient delivery thereof” (Wisconsin Alumni Research Foundation, priority 2017, dated 2023)
Where no end group is shown, it is not given here. [ ]: non-standard residue; d: D form. Arg(Me2a) = CN(C)C(=N)NCCC[C@H](N)C(=O)O

Key:
[1] = tested on: MCF7 PKM2mut/shPKM1, MDA-MB-231 PKM2mut/shPKM1, MCF7 CARM1 KO cells; experiment: MTT cell growth in ROS highly producing cells; assay type: cell-based; conditions: PKM2 KO, PKM2 KO expressing PKM2mut and CARM1 KO cells
Experimental: (§1) For quantitative proliferation assays, 1000 cells per well were seeded onto 96-well plates. 3-(4,5-dimethylthiazol-2-yl)-2,5-diphenyltetrazolium bromide (MTT) solution (20 μL per well, 4 mg/mL) was added into the wells and incubated 4 hours. After discarding the supernatant, 200 μL DMSO was added and the absorbance value (optical density) was measured at 490 nm on a Victor X5 microplate reader (Perkin Elmer, Waltham, Mass.). In the next 3 days, the absorbance value was measured every day. For 5-Ethynyl-2′-deoxyuridine (EdU) incorporation assay, 3×10^5 cells were seeded into 6-well plate and incubated 10 μM EdU for 1 hour, followed by the procedures described in the Click-iT® EdU cytometry assay kit according to the manufacturer's instructions. Cells were then analyzed on BD LSRII. For clonogenicity assay, 1000 viable transfected cells were placed in six-well plates and maintained in complete medium for 2 weeks. Colonies were washed with PBS and fixed with 3.7% formaldehyde for 15 min at room temperature, and then stained for 20 min with 0.05% crystal violet.

[2] = tested on: MDA-MB-231 PKM2mut/shPKM1 cells; experiment: Cell migration of ROS highly producing cells; assay type: cell-based, human
Experimental: (§2) Cell migration assay was performed as previously described (Wang et al., 2014) using 8.0 μm pore size Transwell inserts (Costar Corp., Cambridge, Mass.). Briefly, 1×10^5 cells in 100 μL serum free media were added into the upper chamber, 500 μL culture media with 20% FBS was in the lower well. After 12 hours culture, removed the cells on the upper surface of the membrane and fixed the migrant cells attached to the lower surface with 3.7% formaldehyde in culture media at 37° C. for 15 min, and then stained for 20 min with 0.05% crystal violet.

[3] = molecular target: T1, CARM1-mediated methylation of PKM2 (Homo sapiens, UniProt Q86X55); experiment: In vitro methylation assay of PKM2 by CARM1 (3H-SAM, autoradiography); assay type: biochemical; conditions: for CARM1-mediated methylation of PKM2: free peptide or peptide encapsulated in UMNP; for PKM2 methylation by CARM1: FBP 100 μM or TEPP-46 1 μM
T1 construct: HaloTag (cleaved yes); made in house; host or cells: CARM1: HEK293T (transient)
T1 sequence (Q86X55 1-608): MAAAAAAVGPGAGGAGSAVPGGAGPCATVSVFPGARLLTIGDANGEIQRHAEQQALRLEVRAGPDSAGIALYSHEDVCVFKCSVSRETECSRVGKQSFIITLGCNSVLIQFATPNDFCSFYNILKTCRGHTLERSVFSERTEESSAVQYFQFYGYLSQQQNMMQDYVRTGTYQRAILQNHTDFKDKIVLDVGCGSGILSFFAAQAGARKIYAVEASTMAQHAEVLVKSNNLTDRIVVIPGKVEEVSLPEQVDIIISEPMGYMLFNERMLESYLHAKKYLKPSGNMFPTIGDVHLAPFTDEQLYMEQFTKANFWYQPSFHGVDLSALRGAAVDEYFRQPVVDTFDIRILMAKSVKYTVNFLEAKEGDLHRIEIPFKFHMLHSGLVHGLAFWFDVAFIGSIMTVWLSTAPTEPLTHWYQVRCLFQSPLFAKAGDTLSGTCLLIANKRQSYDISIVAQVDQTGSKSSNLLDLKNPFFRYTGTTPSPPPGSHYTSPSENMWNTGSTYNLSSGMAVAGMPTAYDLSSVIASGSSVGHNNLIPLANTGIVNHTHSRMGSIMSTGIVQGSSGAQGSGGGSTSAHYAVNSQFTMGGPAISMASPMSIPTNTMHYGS
Experimental: (§3) In vitro methylation assay was performed as previously described (Wang et al., 2014). Purified histones or purified substrate proteins were mixed with the protein arginine methyltransferases (PRMTs) in the presence of ^3H-SAM. [^3H]-labeled substrates were resolved by SDS-PAGE and detected by autoradiography.
Human PRMT1-8 cDNAs were cloned into pFN21K HaloTag CMV Flexi Vector (Promega) (Wang et al., 2014). These plasmids were transiently transfected into HEK293T cells for 36 hours. The cells were harvested in binding buffer (HEPES 50 mM, NaCl 150 mM, NP40 0.005%, 0.5 mM EDTA, pH 7.5) and sonicated at 35% power (amplitude) with 10 s on, 30 s off, 4-6 cycles on ice, and then centrifuged and collected the supernatant. The supernatant was incubated with HaloLink resin (Promega) overnight at 4° C. The beads were washed with binding buffer twice and then incubated with 1M urea in binding buffer for 20 min at room temperature. After washing the beads with binding buffer twice, the proteins were eluted with 20 μg/mL TEV in cleavage buffer (DTT 1 mM in binding buffer). For purification of Flag-tagged proteins, the plasmids were transiently transfected into HEK293T cells for 36 hours. The cells were harvested in lysis buffer on ice for 30 min, and then centrifuged and collected the supernatant. Flag M2 Affinity Gel was added into the supernatant and incubated for 2 hours, and then the Gel was washed with PBS four times. The proteins were eluted by 150 μg/mL 3× Flag peptide in 0.5 M Tris HCl and 1M NaCl pH 7.5. For His-tagged or GST-tagged proteins purification, PKM1 and PKM2 cDNA were inserted pET-21a (+) or pGEX-2T plasmid. The plasmids were then transfected into E. coli BL-21 competent cells. Protein expression was induced by the presence of 0.5 mM IPTG overnight at 20° C. After centrifugation, pellet was resuspended in sonication buffer (1% Triton X-100, 1 mM EDTA, 1 mM DTT in PBS) and sonicated at 50% power (amplitude) with 30 s on, 30 s off, 10 cycles on ice or until the suspension became clear. After centrifugation, the supernatant was incubated with Ni-NTA Agarose or Glutathione Agarose Resin for 2 hours at room temperature. For His-tagged proteins, Beads were washed with PBS twice, then washed with 10 mM imidazole in elution buffer (1% Triton X-100, 0.1% glycerol in PBS) once. The His-tagged proteins were eluted with 250 mM imidazole. For GST-tagged proteins, beads were washed with PBS four times and eluted with glutathione elution buffer (50 mM Glutathione, 50 mM Tris HCl, pH 8.0, 100 mM NaCl, and 1 mM EDTA). The eluted proteins were dialyzed with PBS containing 0.1% glycerol.

MCF7 cells [4] = experiment: MTT cell proliferation assay; assay type: cell-based; conditions: peptides delivered by UMNP (FIG. 14E)
Experimental: as §1

MDA-MB-231 cells [5] = experiment: Transwell cell migration assay; assay type: cell-based, human; conditions: peptides delivered by UMNP (FIG. 14F)
Experimental: as §2

[6] = tested on: MCF7 cells (parental, PKM2 KO, PKM2wt/shPKM1, PKM2mut/shPKM1); experiment: Cell death by PI staining after IP3Rs inhibition; assay type: cell-based; conditions: MCF7 lines, 3.5 μM XeB, 24 hours
Experimental: (§4) Cell apoptosis and death assays were based on the previously described method. See Cardenas, C., et al., “Selective Vulnerability of Cancer Cells by Inhibition of Ca(2+) Transfer from Endoplasmic Reticulum to Mitochondria,” Cell Rep 14, 2313-2324 (2016). Briefly, cell apoptosis was determined by annexin V/APC and propidium iodide (PI) staining. Cell death was determined by PI staining using flow cytometry.

[7] = tested on: MDA-MB-231 cells (parental, PKM2 KO, PKM2wt/shPKM1, PKM2mut/shPKM1); experiment: Cell death by PI staining after IP3Rs inhibition; assay type: cell-based, human; conditions: MDA-MB-231 lines, 5 μM XeB, 24 hours
Experimental: as §4

[8] = molecular target: T2, histone H3 methylation by CARM1 (Homo sapiens, UniProt Q86X55); experiment: In vitro methylation assay of control substrate histone H3 by CARM1; assay type: biochemical; conditions: FBP 100 μM or TEPP-46 1 μM
T2 construct: HaloTag (cleaved yes); made in house; host or cells: HEK293T (transient transfection)
T2 sequence (Q86X55 1-608): T1 sequence (Q86X55 1-608)
Experimental: as §3

MCF7 cells [9] = experiment: Oxygen consumption rate (OCR), Seahorse XF96; assay type: cell-based; conditions: TEPP-46 vs DMSO, DCA treated
Experimental: (§5) The OCR was measured in an XF96 extracellular analyzer (Seahorse Bioscience). 2×10^4 cells per well were seeded into the 96-well plate and incubated in DMEM media with 10% FBS at 37° C. overnight. Next day, the media was changed to analysis media containing 10 mM glucose. The cells were incubated in a CO2-free incubator at 37° C. for 1 hour. Cells were sequentially exposed to oligomycin ([…] FCCP (0.5 μM) and rotenone (0.5 μM). Each point in traces represent the average of measurement from six different wells.

MDA-MB-231 cells [10] = experiment: Oxygen consumption rate (OCR), Seahorse XF96; assay type: cell-based, human; conditions: TEPP-46 vs DMSO, DCA treated
Experimental: as §5

MCF7 cells [11] = experiment: Lactate production normalized to cell numbers; assay type: cell-based; conditions: TEPP-46 vs DMSO, DCA treated
MDA-MB-231 cells [12] = experiment: Lactate production normalized to cell numbers; assay type: cell-based, human; conditions: TEPP-46 vs DMSO, DCA treated
methyl-PKM2 = experiment: Western blot analysis of methyl-PKM2 in MCF7 cells; assay type: cell-based; conditions: TEPP-46 vs DMSO
Experimental: Methyl-PKM2 specific anti-peptide antibody was prepared by Genemed Synthesis Inc., TX, using standard methods of peptide synthesis. The KLH-conjugated PKM2 peptide RYR(as)PR(as)[…] (SEQ ID NO: 58), with R445 and R447 asymmetrically dimethylated was synthesized. The peptide corresponding to human PKM2 amino acids 443-454, was used to immunize rabbits. To purify the di-me-PKM2 specific antibody, 10 mg dimethyl peptide (column A) and 10 mg control peptide (non-methyl) (column B) were coupled separately to cyanogen bromide activated agarose beads. 100 ml of antisera was then incubated with the peptide-agarose column A. The unbound antiserum was washed with 1×PBS buffer. After several washes, the antibody was eluted with 0.1 M glycine, pH 2.5; neutralized with 1M […] Tris, pH 8.0. The antibody was stabilized with 0.1% BSA [Elution A]. Elution A was then incubated with column B and then same procedure was followed for elution. The flow through from column B was the dimethyl-specific antibody (methyl-PKM2). The antisera and purified antibody were then tested by enzyme-linked immunosorbent assay (ELISA).

IP3R3 = experiment: Western blot analysis of IP3R3 protein levels in MCF7 cells; assay type: cell-based; conditions: parental MCF7, TEPP-46 vs DMSO

CC1(C)CC(NC(=O)C[P+](c2ccccc2)(c2ccccc2)c2ccccc2)CC(C)(C)N1[O] [mitTEMPO]
cell proliferation [1]: did not alter cell proliferation and migration
cell migration [2]: did not alter cell proliferation and migration

methyl-peptide: negative control: corresponding peptide with R445 and R447 asymmetrically di-methylated (RY[Arg(Me2a)]P[Arg(Me2a)]APIIAVT; also: R445 and R447 asymmetrically di-methylated)
CARM1-mediated methylation of PKM2 [3]: but not the control methyl-peptide, abrogated CARM1-mediated methylation of PKM2
proliferation of MCF7 cells (MTT) (MCF7 cells [4]): but not methyl-peptide, inhibited proliferation of the MCF7 cells
migration of MDA-MB-231 cells (transwell) (MDA-MB-231 cells [5]): but not methyl-peptide, inhibited proliferation of the MCF7 cells (FIG. 14E) and migration of MDA-MB-231 cells

C[C@@H]1CN2CCC[C@H]3CCCCCC[C@H]4CCN5CCC[C@@](O)(CCCCCC[C@@H]1O[C@H]32)[C@H]5O4 [XeB, Xestospongin B]
cell death (vulnerability to IP3Rs inhibition) [6]: PKM2 KO or PKM2^mut cells are more vulnerable to XeB than parental and PKM2^wt cells
cell death (vulnerability to IP3Rs inhibition) [7]: PKM2 KO or PKM2^mut cells are more vulnerable to XeB than parental and PKM2^wt cells

O=P(O)(O)OC[C@H]1O[C@](O)(COP(=O)(O)O)[C@@H](O)[C@@H]1O [FBP]
PKM2 methylation by CARM1 [3]: blockage of PKM2 methylation by CARM1
histone H3 methylation by CARM1 [8]: neither TEPP-46 nor FBP treatment affected histone H3 methylation by CARM1

RYRPRAPIIAVT [non-methyl-peptide]
CARM1-mediated methylation of PKM2 [3]: abrogated CARM1-mediated methylation of PKM2
proliferation of MCF7 cells (MTT) (MCF7 cells [4]): inhibited proliferation of the MCF7 cells
migration of MDA-MB-231 cells (transwell) (MDA-MB-231 cells [5]): inhibited proliferation of the MCF7 cells (FIG. 14E) and migration of MDA-MB-231 cells

Cn1c2cc([S+](C)[O-])sc2c2cnn(Cc3cccc(N)c3)c(=O)c21 (centres unmarked) [TEPP-46]
PKM2 methylation by CARM1 [3]: blockage of PKM2 methylation by CARM1
histone H3 methylation by CARM1 [8]: neither TEPP-46 nor FBP treatment affected histone H3 methylation by CARM1
OCR (MCF7 cells [9]): significantly increased OCR
OCR (MDA-MB-231 cells [10]): significantly increased OCR
lactate production (MCF7 cells [11]): decreasing lactate production
lactate production (MDA-MB-231 cells [12]): decreasing lactate production
methyl-PKM2 level in cells (methyl-PKM2): blocking its methylation
IP3R3 expression (IP3R3): elevated IP3R3 expression
